Activity calls are given as the source filed them.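 How the source made its calls: active means compounds cutting yeast counts by over 60% at top dose, with positive span-based score; inactive means the rest.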

The subject of the data set is S. cerevisiae growth, flow cytometry event count, 7 d. Briefly: yeast growth inhibition by event count, dose response, cytotoxicity control for yeast caloric restriction mimetic project, powder samples (AID 504926). The conditions noted are these: at 100 µM; active compounds read high.
With `O=C(Nc1cccc2nccnc12)c1ccccc1`, the event count decrease is 16% (inactive).

Turning to `O=C(OCc1c(F)cccc1Cl)c1cnc2ccccc2n1`, the event count decrease is 53% (inactive).

With `O=C(Nc1cccc(Cl)c1)Nc1ccc2nccnc2c1`, the event count decrease is -73% (inactive).

For the compound `Cc1ccc(-c2nn(C(C)(C)C)c3ncnc(N)c23)cc1`, the event count decrease is -42% (inactive).

Turning to `CCN(CC)C(=O)c1ccc2nc3ccccc3nc2c1`, the event count decrease was -99% (inactive).

In the case of `Nc1cc2nc3ccccc3nc2cc1N`, the event count decrease was -45% (inactive).

`Cn1c(=O)[nH]c2nncnc2c1=O`: the event count decrease was 24% (inactive).

`CCCCCNC(=O)C(=O)C1C(=O)Nc2ccccc21` (stereo not drawn): the event count decrease is 66%.

`Cn1c(O)c(C(=Nc2ccc(F)cc2)c2ccccc2Cl)c(=O)n(C)c1=O`: the event count decrease was -114% (inactive).

Turning to `COc1ccc2nc3ccccc3[n+]([O-])c2c1`, the event count decrease was 41% (inactive).

Take `Nc1ccc2nccnc2c1`: the event count decrease was -19% (inactive).

Turning to `COc1ccc2nc3ccccc3nc2c1N`, the event count decrease is -32% (inactive).

Consider `O=C1c2c(O)ccc(O)c2C(=O)c2c(NCCNCCO)ccc(NCCNCCO)c21`, for which the event count decrease is -180% (inactive).

On to `C=CCSc1ccc(-c2ccc([N+](=O)[O-])cc2)o1`, for which the event count decrease is 40% (inactive).

For the compound `N#CC(c1nc2ccccc2nc1N1CCCC1)S(=O)(=O)c1ccccc1` (stereo not drawn), the event count decrease was 51% (inactive).

Take `C=CCOn1c(=O)c(-c2cccs2)[n+]([O-])c2ccccc21`: the event count decrease was -43% (inactive).

Regarding `CN1CCN(C(=O)c2ccc3nccnc3c2)CC1`, the event count decrease was -332% (inactive).

`COc1cccc2nc3cc(C)c(C)cc3nc12`: the event count decrease is 56% (inactive).

Take `O=C(CN1CCN(c2ccccn2)CC1)Nc1ccccc1F`: the event count decrease is -51% (inactive).

For `O=C(Nc1ccc2nc3ccccc3nc2c1)c1ccc(Br)cc1`, the event count decrease was 68% (inactive).

Turning to `CC(=O)Nc1ccc2nc3ccccc3nc2c1`, the event count decrease is 43% (inactive).

With `Cc1ccccc1NC(=O)c1cccc2nc3ccccc3nc12`, the event count decrease is -36% (inactive).

`N#CCc1nn(-c2ccccc2)c2ncnc(N)c12`: the event count decrease was 31% (inactive).

Turning to `CCN(CC)C(=O)CSc1nnc(-c2cccc(OC)c2)o1`, the event count decrease is -66% (inactive).

Take `CC(C)(C)n1nc(-c2ccc(F)cc2)c2c(N)ncnc21`: the event count decrease is -56% (inactive).

As to `C[C@@]12C(=O)OC(=O)[C@]1(C)C1CCC2O1`, the event count decrease is 88%.

For `CN(C)C(=O)c1ccc2nccnc2c1`, the event count decrease is -100% (inactive).

As to `CCN(CC)c1ccc2nc3ccc(N)cc3[n+](-c3ccccc3)c2c1`, the event count decrease was -22% (inactive).

Turning to `c1ccc2nc3ccccc3nc2c1`, the event count decrease is 41% (inactive).

`O=C(Nc1ccc2nccnc2c1)N1CCN(c2ccccc2)CC1`: the event count decrease was -25% (inactive).

For `COc1ccc2nc3ccccc3nc2c1NC(=O)c1ccccc1Cl`, the event count decrease is 43% (inactive).

`[O-][n+]1c2ccccc2[n+]([O-])c2cc(O)ccc21`: the event count decrease is 15% (inactive).

As to `C#CCSc1ccc(-c2ccc([N+](=O)[O-])cc2)o1`, the event count decrease is 21% (inactive).

For the compound `O=C(Nc1ccc2nccnc2c1)N1CCOCC1`, the event count decrease is -21% (inactive).

Regarding `CC(C)OC(=O)c1ccc2nc3ccccc3nc2c1`, the event count decrease was 4% (inactive).

As for `O=C(O)c1cccc2nccnc12`, the event count decrease was -180% (inactive).

Consider `CC(C)(C)n1nc(-c2ccc(Cl)cc2)c2c(N)ncnc21`, for which the event count decrease was -87% (inactive).

As to `O=C(Nc1ccccc1)c1ccc2nccnc2c1`, the event count decrease was -494% (inactive).

As for `CC(C)OC(=O)CSc1nnc(-c2ccc(Cl)cc2Cl)o1`, the event count decrease was 41% (inactive).

As for `CNc1ccc2nc3ccccc3[n+](C)c2c1`, the event count decrease was 45% (inactive).

As to `OCC[n+]1c2ccccc2nc2ccc(N3CCOCC3)cc21`, the event count decrease was 19% (inactive).

`COc1ccc2nc3ccccc3nc2c1`: the event count decrease is 35% (inactive).

Regarding `c1ccc2[nH]c3cc4ncnc4cc3nc2c1`, the event count decrease was -129% (inactive).

Turning to `CN(C)CCNc1ncnc2c1cnn2-c1ccc(Cl)cc1`, the event count decrease was 19% (inactive).

For the compound `O=C(c1ccc2nccnc2c1)N1CCN(c2ccccc2)CC1`, the event count decrease is -299% (inactive).

Regarding `FC(F)(F)c1nc2cc3nc4ccccc4[nH]c3cc2n1`, the event count decrease was -72% (inactive).

Consider `O=C(O)c1cnc2ccccc2n1`, for which the event count decrease was 7% (inactive).

Turning to `O=C(c1ccc2nccnc2c1)N1CCCCC1`, the event count decrease was -141% (inactive).

For the compound `O=C(c1cccc2nccnc12)N1CCOc2ccccc21`, the event count decrease is -51% (inactive).

Regarding `O=C(NCc1ccccc1)c1ccc2nccnc2c1`, the event count decrease was 80% (inactive).

Consider `CSc1nnc(-c2ccc([N+](=O)[O-])cc2)o1`, for which the event count decrease is 44% (inactive).

In the case of `Cc1cc(C)c2[nH]c3nc(SCC(=O)O)nnc3c2c1`, the event count decrease is 16% (inactive).

`O=c1[nH]c(O)c(C=Nc2ccc(F)c(Cl)c2)c(=O)[nH]1`: the event count decrease was 27% (inactive).

As for `O=C(/C=C/c1cccs1)NC(=S)NNC(=O)Cc1cccs1`, the event count decrease is 81%.

On to `COc1ccc2c(c1)c1nnc(SC)nc1n2C`, for which the event count decrease was -72% (inactive).

Take `O=C(O)c1ccc2nccnc2c1`: the event count decrease was 47% (inactive).

For the compound `CC(C)(C)NC(=O)Nc1ccc2nccnc2c1`, the event count decrease was -56% (inactive).

For `O=C(Nc1ccc2nccnc2c1)c1cccc2nccnc12`, the event count decrease is 95% (inactive).

For the compound `COc1ccc2cc(C3CC(c4ccco4)=NN3S(=O)(=O)c3ccccc3)c(Cl)nc2c1` (stereo not drawn), the event count decrease was 26% (inactive).

Turning to `Cc1cc2nc3ccc(N(C)C)cc3nc2cc1N`, the event count decrease was -28% (inactive).

With `C[n+]1c2ccccc2nc2ccc(NCCO)cc21`, the event count decrease was 56% (inactive).

Take `CCN(CC)C(=O)c1cccc2nc3ccccc3nc12`: the event count decrease was -36% (inactive).

Regarding `O=C(c1cccc2nc3ccccc3nc12)N1CCOCC1`, the event count decrease is -106% (inactive).

`CCc1nc(NC(C)(C)C)c2cnn(-c3ccccc3)c2n1`: the event count decrease is 52% (inactive).

`O=C(c1cccc2nccnc12)N1CCN(c2ccccc2F)CC1`: the event count decrease is 55% (inactive).

As for `Oc1cccc2nc3ccccc3nc12`, the event count decrease is 69%.

With `CCn1c2ccccc2c2n[nH]c(=S)nc21`, the event count decrease was -35% (inactive).

Take `O=C(Nc1ccc2nccnc2c1)NC1CCCCC1`: the event count decrease was 8% (inactive).

As for `CC(C)CSc1nnc2c3ccccc3n(C)c2n1`, the event count decrease is -5% (inactive).

In the case of `CCC(=Nc1ccccc1O)C1=C(O)CC(c2ccccc2)CC1=O` (stereo not drawn), the event count decrease was -11% (inactive).

For `Cc1cc(C)cc(NC(=O)CN2CCN(c3ccccn3)CC2)c1`, the event count decrease was 2% (inactive).

As for `CC(C)(C)Nc1ncnc2c1cnn2-c1ccccc1`, the event count decrease was 18% (inactive).

As to `O=C(/C=C/c1ccccc1)NC(=S)NNC(=O)Cc1cccs1`, the event count decrease is 57% (inactive).

The values are drawn from PubChem BioAssay AID504926 (NMMLSC, 2011).
